Values quoted from earlier work as cited in US12133903B2, “Oral care article comprising a delivery carrier and solid hydrophilic particles comprising a bleaching agent” (The Procter & Gamble Company, priority 2020, dated 2024).

Conditions: in water; supplier data sheet / Safety Data Sheet / Wikipedia

For `NC(N)=O.OO` [Urea Hydrogen Peroxide Adduct], the Solubility is listed as 80 parts per 100 parts of water.
